pEC50: −log10 of the molar value. Where two headings read alike, the source gives them in different places.
Target: T1, human α7 nAChR stably expressed in a HEK cell line (with human RIC-3) (Homo sapiens, UniProt P36544)
T1 construct: PrecisION hnAChR α7/RIC-3 (product name; no catalogue number given)
Test: Automated patch-clamp electrophysiology functional assay (Assay A), IonFlux HT, whole-cell population patch
Type: cell-based
Experimental: The α7 nAChR positive allosteric modulator (PAM) activity of the present compounds may be tested using assays known in the art. The α7 nAChR PAMs described herein have activities in an automated patch-clamp electrophysiology functional assay as described in the examples. The assay was performed using the IonFlux HT in a whole-cell, population patch configuration. See Golden et al. Assay Drug Dev. Technol. (2011) 9:608-619. The compounds were assessed for their ability to modulate the function of the human α7 nAChR stably expressed in a HEK cell line both in the presence, and in the absence of the natural α7 agonist acetylcholine. By performing a series of such measurements at different concentrations, the effective concentration of the α7 nAChR PAMs (EC50) was determined. See Spencer et al. Assay Drug Dev. Technol. (2012) 10:313-324.
Direct activation of α7 (agonism), and potentiation of acetylcholine-evoked α7 currents was determined as follows:
Automated Patch-Clamp Electrophysiology Functional Assay (Assay A)
Automated patch-clamp electrophysiology was performed using the IonFlux HT (Fluxion Biosciences Inc., San Francisco, Calif.) in the whole-cell, population patch configuration. Test compounds were assessed for their ability to modulate the function of the α7 nicotinic acetylcholine receptor both in the presence, and in the absence of the natural α7 agonist acetylcholine. A HEK cell line stably expressing both human RIC-3 and human α7 (PrecisION hnAChR α7/RIC-3, Eurofins Pharma, St. Charles, Mo.) was cultured in 175 cm^2 triple-layer tissue culture flasks to no more than 90% confluency in DMEM/F-12 growth media supplemented with 10% heat-inactivated fetal bovine serum, 1% non-essential amino acids, 0.625 μg/mL Puromycin, and 400 μg/mL Geneticin. Immediately prior to assay, cells were detached by first aspirating growth media, rinsing with Dulbecco's phosphate buffered saline, and then adding 10 mL of Accutase (Innovative Cell Technologies, San Diego, Calif.) to the flask and then incubating at 37° C. for 5 minutes. Detached cells were then recovered by the addition of 40 mL of CHO-serum-free media supplemented with 25 mM HEPES, and rocked gently in a 50 mL conical tube for 20 minutes prior to patch-clamp assay. After recovery, cells were pelleted by centrifugation at 1,000 RPM for 1 minute in a compact bench top centrifuge; recovery media was aspirated and cells were resuspended in external recording solution (150 mM NaCl, 5 mM KCl, 2 mM CaCl2, 1 mM MgCl2, 10 mM HEPES, 12 mM dextrose) to a density of 5.0×10^6 cells/mL. The cell suspension was added to the cell inlet wells on an IonFlux HT population patch plate which had previously been rinsed and primed with deionized H2O. Test compounds were serially diluted in DMSO and then resuspended to the final test concentration in external recording solution, with, or without 40 μM acetylcholine added to the external recording solution; test compounds were then transferred to the IonFlux HT population patch plate. Internal recording solution (110 mM TrisPO4, 28 mM TrisBase, 0.1 mM CaCl2, 2 mM MgCl2, 11 mM EGTA, 4 mM MgATP) was added to the internal recording solution inlet wells on the IonFlux HT patch plate previously loaded with cells and test compounds, and the plate loaded into the IonFlux HT instrument. A protocol was executed on the IonFlux HT to trap the cells, break into the cells, and establish the whole-cell recording configuration; cells were voltage-clamped at a holding potential of −60 mV for the duration of the experiment, all experiments were conducted at room temperature, and the IonFlux HT injection pressure was 8 psi for solution applications. Upon establishing the whole-cell configuration, external recording solution was perfused into the recording chambers for 120 seconds and then 40 μM acetylcholine was applied for 1 second and immediately washed off with external recording solution for 60 seconds. […]

[1] = HEK cell line stably expressing human α7 and human RIC-3, 40 μM acetylcholine, holding potential −60 mV, room temperature, read-out: α7 nAChR EC50
[2] = automated patch-clamp electrophysiology functional assay (Assay A), potency class by EC50, read-out: α7 nAChR Potency

T1 sequence (P36544 23-502): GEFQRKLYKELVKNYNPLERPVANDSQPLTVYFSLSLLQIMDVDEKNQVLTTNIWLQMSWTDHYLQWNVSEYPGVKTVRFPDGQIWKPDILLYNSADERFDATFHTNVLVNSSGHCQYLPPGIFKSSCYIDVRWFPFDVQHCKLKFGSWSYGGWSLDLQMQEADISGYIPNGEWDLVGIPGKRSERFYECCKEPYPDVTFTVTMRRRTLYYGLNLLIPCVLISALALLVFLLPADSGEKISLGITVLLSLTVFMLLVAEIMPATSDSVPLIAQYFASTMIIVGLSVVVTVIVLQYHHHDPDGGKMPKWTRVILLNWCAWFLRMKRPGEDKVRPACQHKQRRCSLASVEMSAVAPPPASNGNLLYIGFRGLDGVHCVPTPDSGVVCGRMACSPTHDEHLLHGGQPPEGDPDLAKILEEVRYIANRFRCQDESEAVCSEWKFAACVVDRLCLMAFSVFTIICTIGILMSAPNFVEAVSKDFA

Compound	pEC50 [1]	pEC50 [2]
4-{(1S,3S)-3-[2-(3-Fluorophenyl)-1-methyl-1H-imidazol-4-yl]-2,2-dimethylcycloproyl}benzenesulfonamide [Example 35]	5.36	5.30 to 6.30
Cc1cc(S(N)(=O)=O)ccc1[C@H]1C(c2nc(-c3ccccc3)no2)C1(C)C (single isomer, unassigned; enantiomer a) [Example 38, 4-[trans-2,2-Dimethyl-3-(3-phenyl-1,2,4-oxadiazol-5-yl)cyclopropyl]-3-methylbenzenesulfonamide, enantiomer A]	5.37	5.30 to 6.30
CC1(C)[C@H](c2ccc(S(N)(=O)=O)cc2)[C@H]1c1nc(-c2ccc(F)cc2C(F)(F)F)no1 [Example A2]	5.77	5.30 to 6.30
Cc1cccc(F)c1-c1noc([C@@H]2C[C@H]2c2ccc(S(N)(=O)=O)cc2)n1 [Example C11]		6.30 to 7.00
CC1(c2nc(-c3ccc(F)cc3F)no2)CC1c1ccc(S(N)(=O)=O)cc1 (centres unmarked) [Example E3]	5.16	4.30 to 5.30
CC1(c2ccc(S(N)(=O)=O)cc2)CC1c1nc(-c2ccc(F)cc2F)no1 (centres unmarked) [Example E4]	5.77	5.30 to 6.30
CC1(C)[C@H](c2ccc(S(N)(=O)=O)cc2)[C@H]1c1nnc(C2CCCCC2)s1 [Example F7]		5.30 to 6.30
CC(Oc1cccc(Cl)c1)c1nc(C2C(c3ccc(S(N)(=O)=O)cc3)C2(C)C)no1 (centres unmarked) [Example I2]		≥ 7.00
CC1(C)[C@@H](c2ccc(S(N)(=O)=O)cc2)[C@@H]1c1noc(-c2ccncc2C(F)(F)F)n1 [Example I20]	6.35	
CC1(C)[C@H](c2ccc(S(N)(=O)=O)cc2)[C@H]1c1nc(C2CC2)co1 [Example J5]		5.30 to 6.30
CC1(C)[C@@H](c2ccc(S(N)(=O)=O)cc2)[C@@H]1c1nc(-c2cc(F)ccc2F)co1 [Example K2]	5.80	5.30 to 6.30
CC1(C)[C@@H](c2ccc(S(N)(=O)=O)cc2)[C@@H]1c1nc(-c2cccc(F)c2)cs1 [Example K10]	5.41	5.30 to 6.30

The next lines start with the values.

pEC50 [1]	pEC50 [2]	Compound
	5.30 to 6.30	NS(=O)(=O)c1ccc(C2C(c3cnc(-c4ccccc4)o3)C2(F)F)cc1 (racemic) [Example M1]
6.85	6.30 to 7.00	NS(=O)(=O)c1ccc(C2C(c3nc(-c4ccccc4)no3)C2(Cl)Cl)cc1 (racemic) [Example M9]
	4.30 to 5.30	Cc1cc(C2C(c3nc(-c4ccccc4)no3)C2(C)C)ccc1S(N)(=O)=O (single isomer, unassigned) [Example M8]
5.96	5.30 to 6.30	CC(C)c1csc([C@H]2[C@H](c3ccc(S(N)(=O)=O)cc3)C2(C)C)n1 [Example K11]
	6.30 to 7.00	NS(=O)(=O)c1ccc([C@@H]2C[C@H]2c2ncc(C3CCCC3)s2)cc1 [Example K15]
